Results reported in ChEMBL document CHEMBL1201862, “PubChem BioAssay data set” (2004).
Active and inactive are the calls of the source.

Assays:
[1] = molecular target: T1, G-protein coupled receptor 55 (Homo sapiens, UniProt Q9Y2T6); experiment: GPR55 agonists via beta-arrestin recruitment, primary screen, imaging, U2OS cells, beta-arrestin-GFP redistribution (AID 1961); type: functional
Cannabinoid receptor 2 [2] = molecular target: T2, Cannabinoid receptor 2 (Homo sapiens, UniProt P34972); experiment: SAR analysis of antagonists of the Cannabinoid Receptor 2 using an Image-Based Assay - Set 2. [Related pubchem assays (depositor defined):AID1961, AID1965]; type: functional
Cannabinoid receptor 2 [3] = molecular target: T2, Cannabinoid receptor 2; experiment: SAR analysis of agonists of the Cannabinoid Receptor 2 using an Image-Based Assay - Set 2. [Related pubchem assays (depositor defined):AID1961, AID1965]; type: functional
Caspase-3 = molecular target: T3, Caspase-3 (Homo sapiens, UniProt P42574); type: functional;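 note: Dose-response selectivity test against caspase-3 for candidate inhibitors of sentrin-specific proteases (SENPs)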
T3 sequence (P42574 whole entry): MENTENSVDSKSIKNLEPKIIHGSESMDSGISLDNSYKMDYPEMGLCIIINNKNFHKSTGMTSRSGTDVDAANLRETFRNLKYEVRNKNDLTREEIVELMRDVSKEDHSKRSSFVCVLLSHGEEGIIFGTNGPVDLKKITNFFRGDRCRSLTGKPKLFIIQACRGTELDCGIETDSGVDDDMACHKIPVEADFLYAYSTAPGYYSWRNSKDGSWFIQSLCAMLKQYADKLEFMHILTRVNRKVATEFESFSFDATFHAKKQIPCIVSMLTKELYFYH

[4] = molecular target: T4, Sentrin-specific protease 7 (Homo sapiens, UniProt Q9BQF6); type: functional;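 note: Luminescence-based dose-response confirmation of ultra-high-throughput screening hits, measuring inhibition of SENP7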
T4 sequence (Q9BQF6 whole entry): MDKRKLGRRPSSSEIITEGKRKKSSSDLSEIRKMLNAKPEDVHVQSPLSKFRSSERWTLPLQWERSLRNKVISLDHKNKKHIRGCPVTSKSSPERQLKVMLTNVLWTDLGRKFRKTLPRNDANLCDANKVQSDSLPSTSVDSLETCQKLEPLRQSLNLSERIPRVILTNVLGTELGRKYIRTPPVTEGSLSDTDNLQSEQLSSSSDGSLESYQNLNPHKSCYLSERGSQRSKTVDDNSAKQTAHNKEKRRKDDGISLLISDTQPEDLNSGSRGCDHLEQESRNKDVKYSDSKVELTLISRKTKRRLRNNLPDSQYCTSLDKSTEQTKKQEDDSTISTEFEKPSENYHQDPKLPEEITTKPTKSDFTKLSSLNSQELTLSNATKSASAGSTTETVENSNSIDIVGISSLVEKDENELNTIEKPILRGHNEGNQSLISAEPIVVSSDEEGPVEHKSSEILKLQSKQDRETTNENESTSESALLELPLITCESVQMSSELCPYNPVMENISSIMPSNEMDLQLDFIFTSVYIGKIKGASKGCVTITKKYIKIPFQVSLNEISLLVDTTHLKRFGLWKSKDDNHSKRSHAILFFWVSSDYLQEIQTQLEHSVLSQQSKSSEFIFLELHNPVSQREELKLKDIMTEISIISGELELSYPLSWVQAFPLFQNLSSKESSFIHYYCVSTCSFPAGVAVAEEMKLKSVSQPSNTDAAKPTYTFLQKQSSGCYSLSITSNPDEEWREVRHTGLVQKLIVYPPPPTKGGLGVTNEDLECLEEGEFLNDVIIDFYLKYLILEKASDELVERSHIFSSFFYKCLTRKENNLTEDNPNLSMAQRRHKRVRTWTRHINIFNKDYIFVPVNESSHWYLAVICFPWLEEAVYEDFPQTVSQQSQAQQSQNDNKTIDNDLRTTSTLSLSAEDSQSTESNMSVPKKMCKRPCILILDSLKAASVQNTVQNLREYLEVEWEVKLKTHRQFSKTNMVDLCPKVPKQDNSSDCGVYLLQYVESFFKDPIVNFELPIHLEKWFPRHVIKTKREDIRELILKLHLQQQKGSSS

[5] = molecular target: T5, Sentrin-specific protease 6 (Homo sapiens, UniProt Q9GZR1); type: functional;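 note: Luminescence-based dose-response confirmatory assay of SENP6 inhibition, following up an ultra-high-throughput screen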
T5 sequence (Q9GZR1 whole entry): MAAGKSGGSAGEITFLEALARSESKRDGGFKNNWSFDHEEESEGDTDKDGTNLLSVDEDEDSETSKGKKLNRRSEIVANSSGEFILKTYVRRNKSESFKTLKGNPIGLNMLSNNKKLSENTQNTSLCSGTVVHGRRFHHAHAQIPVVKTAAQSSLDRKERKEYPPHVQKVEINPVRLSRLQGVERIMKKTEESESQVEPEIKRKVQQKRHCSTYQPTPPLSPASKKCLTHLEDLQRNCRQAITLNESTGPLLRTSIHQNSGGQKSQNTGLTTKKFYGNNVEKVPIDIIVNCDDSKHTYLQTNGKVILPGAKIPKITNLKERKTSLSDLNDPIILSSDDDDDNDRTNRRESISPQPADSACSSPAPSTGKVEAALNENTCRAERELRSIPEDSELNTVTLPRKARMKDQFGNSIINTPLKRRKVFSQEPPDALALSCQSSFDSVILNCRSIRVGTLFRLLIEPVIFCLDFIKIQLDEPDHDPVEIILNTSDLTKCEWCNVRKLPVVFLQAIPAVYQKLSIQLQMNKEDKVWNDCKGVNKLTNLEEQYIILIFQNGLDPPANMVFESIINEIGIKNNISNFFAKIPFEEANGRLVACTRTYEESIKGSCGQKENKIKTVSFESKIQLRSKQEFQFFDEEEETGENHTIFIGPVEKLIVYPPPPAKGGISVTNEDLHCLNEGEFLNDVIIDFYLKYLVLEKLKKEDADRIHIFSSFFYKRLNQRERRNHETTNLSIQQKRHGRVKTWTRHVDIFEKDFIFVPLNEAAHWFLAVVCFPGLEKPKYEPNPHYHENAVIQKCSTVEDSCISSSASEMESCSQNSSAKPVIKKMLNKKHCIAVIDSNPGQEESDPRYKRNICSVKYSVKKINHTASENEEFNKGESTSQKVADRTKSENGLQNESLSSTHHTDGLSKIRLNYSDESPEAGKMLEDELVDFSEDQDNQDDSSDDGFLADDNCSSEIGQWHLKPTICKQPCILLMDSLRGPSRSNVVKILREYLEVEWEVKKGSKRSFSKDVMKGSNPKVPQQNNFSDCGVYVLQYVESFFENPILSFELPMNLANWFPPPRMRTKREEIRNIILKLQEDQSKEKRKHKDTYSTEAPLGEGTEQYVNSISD

[6] = molecular target: T6, Sentrin-specific protease 8 (Homo sapiens, UniProt Q96LD8); type: functional;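 note: luminescence read-out of SENP8 inhibition, dose-response confirmation following an ultra-high-throughput screen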
T6 sequence (Q96LD8 whole entry): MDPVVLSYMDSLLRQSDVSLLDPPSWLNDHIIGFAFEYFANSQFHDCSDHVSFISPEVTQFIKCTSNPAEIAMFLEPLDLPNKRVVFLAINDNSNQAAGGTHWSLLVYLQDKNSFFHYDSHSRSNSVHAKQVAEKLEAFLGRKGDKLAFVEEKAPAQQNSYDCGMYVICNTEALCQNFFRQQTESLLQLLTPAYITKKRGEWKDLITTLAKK

[7] = molecular target: T1, G-protein coupled receptor 55; experiment: SAR analysis of selective Agonists of GPR55 using an Image-Based Assay. [Related pubchem assays (depositor defined):AID1961, AID1965]; type: functional
Cannabinoid receptor 1 = Cannabinoid receptor 1 (Homo sapiens, UniProt P21554); experiment: SAR analysis of antagonists of the Cannabinoid Receptor 1 using an Image-Based Assay. [Related pubchem assays (depositor defined):AID1961, AID1965]; type: functional
[8] = HepG2 cell cytotoxicity, dose response, cytotoxicity control, ATP luminescence, cherry-pick, activator set 2 (AID 1053143); type: functional, cell-based
CHO = experiment: cytotoxicity in TLR9-MyD88 CHO cells, dose response, cytotoxicity control for TLR9-MyD88 binding inhibitor project, cell-based, luminescence (AID 588339); type: functional, hamster; settings: Cricetulus griseus;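 note: CHO cells stably coexpressing TLR9 and MyD88 fusions from primary screen; compound exposure lasted 48 hours before viability readout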
Cytochrome P450 1A2 = molecular target: T7, Cytochrome P450 1A2 (Homo sapiens, UniProt P05177);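 note: PubChem cytochrome P450 panel assay, CYP1A2 panel member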
T7 sequence (P05177 whole entry): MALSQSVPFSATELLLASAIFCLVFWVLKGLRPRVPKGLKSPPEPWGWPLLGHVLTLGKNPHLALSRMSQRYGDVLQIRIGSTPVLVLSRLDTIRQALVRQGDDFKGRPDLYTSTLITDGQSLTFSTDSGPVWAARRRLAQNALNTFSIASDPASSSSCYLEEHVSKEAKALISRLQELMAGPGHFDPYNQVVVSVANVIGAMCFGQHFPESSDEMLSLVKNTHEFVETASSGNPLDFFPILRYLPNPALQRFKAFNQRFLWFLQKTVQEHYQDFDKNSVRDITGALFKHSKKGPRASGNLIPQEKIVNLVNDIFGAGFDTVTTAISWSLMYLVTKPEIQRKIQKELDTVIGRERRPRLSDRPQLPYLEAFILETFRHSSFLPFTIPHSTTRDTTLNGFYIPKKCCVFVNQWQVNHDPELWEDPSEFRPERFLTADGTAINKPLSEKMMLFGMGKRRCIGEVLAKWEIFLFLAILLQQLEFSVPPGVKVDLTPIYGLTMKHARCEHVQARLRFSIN

Cytochrome P450 2C9 = Cytochrome P450 2C9 (Homo sapiens, UniProt P11712)
[9] = Luminescence Cell-Based Dose Retest to Confirm Inhibitors of Cancer Stem Cells. [Related pubchem assays (depositor defined):AID2717, AID2721]; type: functional; settings: Homo sapiens
[10] = molecular target: Heat shock protein HSP 90-alpha (Homo sapiens, UniProt P07900); type: functional, organism-based
Vero = Vero cell cytotoxicity, cytotoxicity control for flavivirus capping enzyme inhibitors (AID 588742); type: functional; settings: Chlorocebus sabaeus
Genome polyprotein = Genome polyprotein (dengue virus type 2, UniProt P29990); experiment: Dengue-2 NS5 methyltransferase inhibitors, primary screen, biochemical, confirmation dose response (AID 588689); type: functional
HEK293 [11] = experiment: NOD1 signaling inhibitors, primary screen, cell-based, luminescence, uHTS (AID 1578); type: functional; settings: Homo sapiens
HEK293 [12] = experiment: cells; type: functional, cell-based; settings: Homo sapiens
HEK293 [13] = experiment: cells; type: functional, cell-based; settings: Homo sapiens; remark: listed apart in the source
[14] = molecular target: Nucleotide-binding oligomerization domain-containing protein 2 (Homo sapiens, UniProt Q9HC29); experiment: NOD2 signaling inhibitors, cell-based, luminescence, uHTS, HEK293 (AID 1566); type: functional
HEK293 [15] = experiment: NOD2 signaling inhibitors in MDP-stimulated cells, cell-based, uHTS, luminescence (AID 2001); type: functional; settings: Homo sapiens
HEK293 [16] = experiment: cells; type: functional, cell-based; settings: Homo sapiens; remark: listed apart in the source
[17] = Counterscreen for inhibitors of Trypanosoma brucei methionyl tRNA synthetase (MetRS): Luminescence-based cell-based high throughput dose response assay to identify compounds that are cytotoxic to Jurkat human T lymphocyte cells.; type: functional
HEK293 [18] = experiment: inhibitors of LMP1-driven NF-kB reporter, dose response, cell-based, HEK293, luciferase, cherry-pick (AID 588343); type: functional; settings: Homo sapiens
[19] = molecular target: Latent membrane protein 1 (Human herpesvirus 4 (strain B95-8), UniProt P03230); experiment: TES1-eGFP NF-kB reporter inhibition versus Tet-On dsRED, dose response, selectivity assay for LMP1 NF-kB inhibitor project, imaging, HEK293T, dual-color eGFP/dsRED, cherry-picks (AID 588398); type: functional, cell-based
Interleukin-8 = Interleukin-8 (Homo sapiens, UniProt P10145); experiment: Dose Response confirmation of uHTS small molecule hits for cystic fibrosis induced NFkb Inhibitors in a PAF-induced IL8 counterscreen.; type: functional; settings: read-out: IC50_Mean
[20] = molecular target: Lysine-specific demethylase 4C (Homo sapiens, UniProt Q9H3R0); experiment: GASC-1 (JMJD2C) histone demethylase inhibitors, dose response, biochemical, DELFIA europium, cherry-picked samples (AID 488835); type: functional
Lysine-specific demethylase 4C, sequence (Q9H3R0 whole entry): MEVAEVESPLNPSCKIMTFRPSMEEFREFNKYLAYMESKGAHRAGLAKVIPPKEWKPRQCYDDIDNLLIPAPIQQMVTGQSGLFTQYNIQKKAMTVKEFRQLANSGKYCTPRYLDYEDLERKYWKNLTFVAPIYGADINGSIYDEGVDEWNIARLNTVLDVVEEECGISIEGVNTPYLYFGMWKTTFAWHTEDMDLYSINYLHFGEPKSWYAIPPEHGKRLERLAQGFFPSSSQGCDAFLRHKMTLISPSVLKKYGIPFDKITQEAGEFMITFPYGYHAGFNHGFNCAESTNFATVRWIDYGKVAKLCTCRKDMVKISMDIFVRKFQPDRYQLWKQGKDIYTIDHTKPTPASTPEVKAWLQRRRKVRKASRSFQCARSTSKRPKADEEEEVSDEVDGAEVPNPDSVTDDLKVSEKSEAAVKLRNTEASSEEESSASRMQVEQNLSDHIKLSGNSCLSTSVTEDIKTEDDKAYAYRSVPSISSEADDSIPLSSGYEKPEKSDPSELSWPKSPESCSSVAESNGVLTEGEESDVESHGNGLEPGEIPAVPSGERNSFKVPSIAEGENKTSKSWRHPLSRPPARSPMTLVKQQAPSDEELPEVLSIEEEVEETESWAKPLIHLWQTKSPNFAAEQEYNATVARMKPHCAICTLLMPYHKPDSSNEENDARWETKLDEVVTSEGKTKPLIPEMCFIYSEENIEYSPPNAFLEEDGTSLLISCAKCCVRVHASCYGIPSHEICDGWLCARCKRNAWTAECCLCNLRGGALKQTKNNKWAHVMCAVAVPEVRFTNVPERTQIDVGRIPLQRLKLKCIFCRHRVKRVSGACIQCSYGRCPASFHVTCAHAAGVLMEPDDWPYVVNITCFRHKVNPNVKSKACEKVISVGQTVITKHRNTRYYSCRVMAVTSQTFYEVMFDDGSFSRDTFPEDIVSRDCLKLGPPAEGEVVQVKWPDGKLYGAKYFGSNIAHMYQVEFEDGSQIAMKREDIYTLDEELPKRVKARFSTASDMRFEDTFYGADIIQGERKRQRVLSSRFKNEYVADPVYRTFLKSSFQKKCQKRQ

T2 sequence (P34972 whole entry): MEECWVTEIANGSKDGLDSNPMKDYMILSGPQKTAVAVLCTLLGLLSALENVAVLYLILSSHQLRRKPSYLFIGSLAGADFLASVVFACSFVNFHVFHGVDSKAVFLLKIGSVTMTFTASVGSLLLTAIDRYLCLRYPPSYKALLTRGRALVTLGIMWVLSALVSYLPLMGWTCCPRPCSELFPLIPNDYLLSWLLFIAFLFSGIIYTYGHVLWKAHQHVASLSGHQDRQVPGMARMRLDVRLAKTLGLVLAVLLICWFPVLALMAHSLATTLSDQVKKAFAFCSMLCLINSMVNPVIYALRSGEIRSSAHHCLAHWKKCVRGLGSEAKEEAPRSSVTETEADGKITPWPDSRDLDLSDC
T1 sequence (Q9Y2T6 whole entry): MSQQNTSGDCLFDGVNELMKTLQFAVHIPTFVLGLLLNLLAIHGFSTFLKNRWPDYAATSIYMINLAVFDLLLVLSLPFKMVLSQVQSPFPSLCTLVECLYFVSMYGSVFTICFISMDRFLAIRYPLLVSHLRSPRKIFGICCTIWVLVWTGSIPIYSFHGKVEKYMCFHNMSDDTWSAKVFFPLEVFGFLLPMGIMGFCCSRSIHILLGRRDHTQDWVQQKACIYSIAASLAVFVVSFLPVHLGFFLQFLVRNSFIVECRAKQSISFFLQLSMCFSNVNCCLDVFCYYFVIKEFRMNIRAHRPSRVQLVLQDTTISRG
Cannabinoid receptor 1, sequence (P21554 whole entry): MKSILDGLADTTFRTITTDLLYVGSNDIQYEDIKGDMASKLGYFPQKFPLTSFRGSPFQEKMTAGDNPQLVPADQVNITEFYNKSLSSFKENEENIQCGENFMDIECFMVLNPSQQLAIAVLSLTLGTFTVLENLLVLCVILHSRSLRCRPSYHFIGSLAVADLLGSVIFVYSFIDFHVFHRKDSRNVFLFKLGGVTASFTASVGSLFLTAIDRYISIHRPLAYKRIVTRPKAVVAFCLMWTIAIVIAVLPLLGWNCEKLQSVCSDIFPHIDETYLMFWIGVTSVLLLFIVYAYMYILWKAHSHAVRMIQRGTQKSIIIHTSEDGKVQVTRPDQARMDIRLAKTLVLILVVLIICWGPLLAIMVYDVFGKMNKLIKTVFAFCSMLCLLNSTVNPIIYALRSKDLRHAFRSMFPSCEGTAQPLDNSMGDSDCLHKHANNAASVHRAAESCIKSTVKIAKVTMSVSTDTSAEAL
Genome polyprotein, sequence (P29990 2492-3391 limits assumed): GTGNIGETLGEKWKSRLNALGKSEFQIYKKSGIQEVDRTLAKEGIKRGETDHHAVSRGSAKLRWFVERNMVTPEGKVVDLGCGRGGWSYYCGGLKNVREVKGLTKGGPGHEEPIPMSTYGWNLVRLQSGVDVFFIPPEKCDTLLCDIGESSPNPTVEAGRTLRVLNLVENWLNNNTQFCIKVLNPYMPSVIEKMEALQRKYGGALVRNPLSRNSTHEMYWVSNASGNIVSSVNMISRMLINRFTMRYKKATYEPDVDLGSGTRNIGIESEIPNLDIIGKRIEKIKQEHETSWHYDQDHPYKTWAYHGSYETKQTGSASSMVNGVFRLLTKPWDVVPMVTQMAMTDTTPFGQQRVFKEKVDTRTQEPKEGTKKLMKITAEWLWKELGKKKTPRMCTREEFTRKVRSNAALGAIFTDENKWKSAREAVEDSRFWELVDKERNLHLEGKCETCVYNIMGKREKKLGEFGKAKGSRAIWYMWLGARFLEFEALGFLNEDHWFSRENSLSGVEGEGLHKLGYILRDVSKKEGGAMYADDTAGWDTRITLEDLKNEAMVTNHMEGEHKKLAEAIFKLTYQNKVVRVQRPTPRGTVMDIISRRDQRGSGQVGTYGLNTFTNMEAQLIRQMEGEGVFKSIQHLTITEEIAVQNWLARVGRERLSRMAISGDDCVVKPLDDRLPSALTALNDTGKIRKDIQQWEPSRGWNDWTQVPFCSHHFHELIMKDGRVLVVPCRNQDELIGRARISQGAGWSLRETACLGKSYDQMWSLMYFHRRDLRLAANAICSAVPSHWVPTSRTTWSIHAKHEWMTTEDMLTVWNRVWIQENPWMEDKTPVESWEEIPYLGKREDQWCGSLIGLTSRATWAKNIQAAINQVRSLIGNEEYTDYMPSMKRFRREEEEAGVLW
Nucleotide-binding oligomerization domain-containing protein 2, sequence (Q9HC29 whole entry, the tested form may be a part): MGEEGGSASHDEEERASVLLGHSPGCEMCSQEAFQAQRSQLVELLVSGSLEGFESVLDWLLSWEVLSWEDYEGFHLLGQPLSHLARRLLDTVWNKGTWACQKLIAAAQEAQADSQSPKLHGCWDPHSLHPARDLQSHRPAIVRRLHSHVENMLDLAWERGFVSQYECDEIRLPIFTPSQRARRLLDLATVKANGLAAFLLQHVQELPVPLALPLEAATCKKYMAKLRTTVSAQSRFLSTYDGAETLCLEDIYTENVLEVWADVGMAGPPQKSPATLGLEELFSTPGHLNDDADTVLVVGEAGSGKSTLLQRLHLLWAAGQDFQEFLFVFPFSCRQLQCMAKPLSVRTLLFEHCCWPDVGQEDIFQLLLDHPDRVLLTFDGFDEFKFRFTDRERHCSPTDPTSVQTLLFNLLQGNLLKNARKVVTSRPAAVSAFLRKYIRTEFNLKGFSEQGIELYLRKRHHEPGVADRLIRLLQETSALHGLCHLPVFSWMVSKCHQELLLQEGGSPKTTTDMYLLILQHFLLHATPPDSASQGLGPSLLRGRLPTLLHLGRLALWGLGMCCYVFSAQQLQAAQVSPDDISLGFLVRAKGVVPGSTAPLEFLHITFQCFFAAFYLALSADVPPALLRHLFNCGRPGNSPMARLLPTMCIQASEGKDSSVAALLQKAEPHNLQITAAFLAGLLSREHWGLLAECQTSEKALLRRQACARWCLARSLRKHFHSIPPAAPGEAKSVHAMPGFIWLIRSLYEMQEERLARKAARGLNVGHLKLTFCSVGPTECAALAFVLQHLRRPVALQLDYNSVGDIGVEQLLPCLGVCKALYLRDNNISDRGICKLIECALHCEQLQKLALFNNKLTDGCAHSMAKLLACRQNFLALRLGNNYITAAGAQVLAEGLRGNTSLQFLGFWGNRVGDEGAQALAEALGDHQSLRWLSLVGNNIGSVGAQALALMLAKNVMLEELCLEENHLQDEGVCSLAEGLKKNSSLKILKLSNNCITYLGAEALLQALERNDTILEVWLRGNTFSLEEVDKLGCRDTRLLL
Cytochrome P450 2C9, sequence (P11712 whole entry): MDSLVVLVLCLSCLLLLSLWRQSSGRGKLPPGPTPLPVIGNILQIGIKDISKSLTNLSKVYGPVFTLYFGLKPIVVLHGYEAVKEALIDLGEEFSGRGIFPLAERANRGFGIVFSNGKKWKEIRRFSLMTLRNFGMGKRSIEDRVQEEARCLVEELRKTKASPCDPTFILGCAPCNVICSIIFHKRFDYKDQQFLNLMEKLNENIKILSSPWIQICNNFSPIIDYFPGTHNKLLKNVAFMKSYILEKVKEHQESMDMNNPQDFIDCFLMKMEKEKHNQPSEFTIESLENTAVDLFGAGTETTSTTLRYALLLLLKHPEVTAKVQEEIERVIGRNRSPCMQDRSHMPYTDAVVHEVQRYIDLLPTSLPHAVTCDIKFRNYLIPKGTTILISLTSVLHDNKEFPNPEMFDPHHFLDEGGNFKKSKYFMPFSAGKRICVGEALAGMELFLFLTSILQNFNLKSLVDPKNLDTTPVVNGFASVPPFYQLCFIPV
Latent membrane protein 1, sequence (P03230 whole entry): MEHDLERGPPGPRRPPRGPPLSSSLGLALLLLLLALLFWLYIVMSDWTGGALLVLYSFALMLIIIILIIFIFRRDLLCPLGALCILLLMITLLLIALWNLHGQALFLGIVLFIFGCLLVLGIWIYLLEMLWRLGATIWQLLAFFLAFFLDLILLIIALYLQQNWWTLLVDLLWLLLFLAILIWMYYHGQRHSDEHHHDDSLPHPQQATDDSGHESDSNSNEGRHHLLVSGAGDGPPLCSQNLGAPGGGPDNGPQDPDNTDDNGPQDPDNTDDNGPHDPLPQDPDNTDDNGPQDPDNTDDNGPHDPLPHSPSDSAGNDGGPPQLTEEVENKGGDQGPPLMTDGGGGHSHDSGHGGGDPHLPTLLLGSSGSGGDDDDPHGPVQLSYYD

CC(C)=CC(=O)Nc1ccc(OCc2ccccc2)cc1
EC50 [1]: 2.34 µM (active)
IC50 (Cannabinoid receptor 2 [2]): > 32 µM (inactive)
EC50 (Cannabinoid receptor 2 [3]): > 32 µM (inactive)
IC50 (Caspase-3): 20.8 µM (active)
IC50 [4]: 8.82 µM (active)
IC50 [5]: 25.9 µM (active)
IC50 [6]: 28.6 µM (active)
EC50 [7]: 1.89 µM (active)
IC50 (Cannabinoid receptor 1): > 32 µM (inactive)
AC50 [8]: > 52 µM (inactive)

CNC(=S)N/N=C/c1ccc(OCc2ccccc2)c(Br)c1
IC50 (CHO): 7.62 µM (active)

COc1cc(C(=O)NCc2ccc(OCCN(C)C)cc2)cc(OC)c1OC [TRIMETHOBENZAMIDE]
AC50 (Cytochrome P450 1A2): inactive
AC50 (Cytochrome P450 2C9): inactive

CC1(C)CC[C@]2(C(=O)O)CC[C@]3(C)C(=CC[C@@H]4[C@@]5(C)CC[C@H](O[C@@H]6O[C@H](C(=O)O)[C@@H](O)[C@H](O[C@@H]7OC[C@H](O)[C@H](O)[C@H]7O)[C@H]6O)C(C)(C)[C@@H]5CC[C@]43C)[C@@H]2C1
AC50 [9]: 2.85 µM (active)
AC50 [10]: 0.649 µM (active)
CC50 (Vero): 36.8 µM (active)
IC50 (Genome polyprotein): 31 µM (active)

COc1cc2c(cc1NC(=O)CSc1ccccc1)oc1ccccc12
EC50 [1]: 0.671 µM (active)
IC50 (Cannabinoid receptor 2 [2]): > 32 µM (inactive)
EC50 (Cannabinoid receptor 2 [3]): > 32 µM (inactive)
EC50 [7]: 0.627 µM (active)
IC50 (Cannabinoid receptor 1): > 32 µM (inactive)

O=C(NCc1cc(Br)cc(Br)c1OC(=O)c1ccccc1[N+](=O)[O-])c1ccccc1
EC50 (HEK293 [11]): 6.43 µM (active)
IC50 (HEK293 [12]): 5.22 µM (active)
IC50 (HEK293 [13]): > 20 µM (inactive)
EC50 [14]: 18.6 µM (active)
IC50 (HEK293 [15]): 5.6 µM (active)
IC50 (HEK293 [16]): > 20 µM (inactive)
CC50 (Vero): > 40 µM (active)
IC50 [17]: 50.3 µM (inactive)

COc1ccc(-c2csc3ncnc(NCCN4CCOCC4)c23)cc1
AC50 (HEK293 [18]): 25.3 µM (active)
AC50 [19]: 21.3 µM (active)
IC50 (Interleukin-8): 50.7 µM (inactive)

c1ccc2cc(CCO[C@H]3CCCCO3)ncc2c1
AC50 [20]: 11.3 µM (active)

Cc1ccc(S(=O)(=O)O)cc1.c1cc2c(c(NC3=NCCN3)c1)CCCC2
AC50 (Cytochrome P450 1A2): inactive
